Results on three molecules are retold here after patent US5057513A, “Spiro-thiazepine derivatives useful as PAF antagonists” (Fujisawa Pharmaceutical Co., Ltd., priority 1989, dated 1991).

In assay [1] the test system is PAF-induced vascular permeability increase. In words: Inhibition of PAF-induced vascular permeability increase. In kind it is in vivo, 6-week-old male ddY mice. The following applies: Mus musculus, ip; mice; intraperitoneally, 5 minutes before Evan's blue; PAF 50 ng intradermally; read-out: ED50 (effective dose required to inhibit PAF-induced vascular permeability increase by 50%). As for the experimental part: PAF (50 ng) was injected intradermally to the depilated back of 6-week-old male ddY mice. Evan's blue (1 mg) was injected intravenously 5 minutes before the PAF injection, and the test compound was administered intraperitoneally 5 minutes before the Evan's blue injection. Thirty minutes later, the animals were killed and the area of dye leakage was measured.
The inhibition was expressed as ED50 value, i.e. effective dose (mg/kg) required to inhibit PAF-induced vascular permeability increase by 50%.

For assay [2], the system named is platelet aggregation induced with PAF. In words: Test 1 (Inhibition of platelet aggregation). In kind it is cell-based, male Japanese white rabbit. The conditions noted are these: Oryctolagus cuniculus; rabbit platelet rich plasma; final concentration of PAF usually 32 nM; read-out: IC50 (concentration required to inhibit the platelet aggregation response by 50%). Here is the method: Blood was collected through the polyethylene catheter introduced into the carotid artery of male Japanese white rabbit (2.5 to 3 kg body weight). The blood was anticoagulated with 1 volume of 3.8% sodium citrate to 9 volume of blood. Platelet rich plasma (PRP) was prepared by centrifugation of the blood at 150 g for 10 minutes at room temperature. The PRP was diluted with platelet poor plasma obtained by further centrifugation of the blood at 1,000 g for 20 minutes. The platelet number was 5×10^5 cells/mm^3. Platelet aggregation induced with PAF [1-O-hexadecyl-2-O-acetyl-sn-glycero-3-phosphorylcholine] was measured by the nephelometric technique of Born and Cross [cf. Journal of Physiology 168, 178-188 (1963)] using HKK Hema tracer (trade name, made by Niko Bioscience Inc.).
Activity of inhibitor was expressed as IC50 value, i.e. concentration required to inhibit the platelet aggregation response by 50%. The final concentration of PAF was usually 32 nM.

The subject of assay [3] is PAF-induced bronchoconstriction. In words: Effect of the test compound on PAF-induced bronchoconstriction in the guinea-pig. The following applies: Cavia porcellus, po, orally 30 minutes before PAF (0.64 μg/ml, 1 ml/kg), read-out: ED50 (effective dose of the test compound to inhibit the PAF-induced bronchoconstriction by 50%). In kind it is in vivo, Male Hartley guinea-pigs. As for the experimental part:
Male Hartley guinea-pigs (400-500 g) were anesthetized with sodium pentobarbital (25 mg/kg, intraperitoneally). The right jugular vein was catheterized for injection of PAF (0.64 μg/ml, 1 ml/kg), and the animals were tracheotomized and ventilated with a respiratory pump (Harvard B-34, 5 ml/stroke, 60 strocks/minutes).
The test compound was administered orally 30 minutes before challenge with PAF.
(ED50 : effective dose of the test compound to inhibit the PAF-induced bronchoconstriction by 50%).

The subject of assay [4] is endotoxin-induced disseminated intravascular coagulation (serum FDP). The assay can be described thus: Effect of the test compound on the endotoxin-induced disseminated intravascular coagulation. It is filed as in vivo, male Wister rats. The conditions noted are these: Rattus norvegicus, rats. As for the experimental part:
Conscious male Wister rats, 150-200 g body weight, 7 weeks old, were used in the experiment on endotoxin-induced disseminated intravascular coagulation (DIC). The animals were fasted before the experiment. A 10 mg/kg dose of endotoxin (E. coli) dissolved in saline was given as an injection via tail vein. Test compound was given orally 60 minutes before and 6 hours after endotoxin. The intravenous administration of the test compound into a tail vein was simultaneous with intravenous injection of endotoxin.
Arterial blood samples were taken 4 hours (Test compound; intravenously) and 24 hours (Test compound; orally) after endotoxin for measurements of serum FDP (fibrin degradation products), respectively. FDP was determined by the latex aggregation test.

For the next assay, the system named is PAF-induced lethality. The assay can be described thus: Effect of the test compound on the PAF-induced lethality in rats. In kind it is in vivo, male Wistar rats. The following applies: Rattus norvegicus, survival for 24 hours. As for the experimental part: Conscious male Wistar rats, 150-200 g body weight, 7 weeks old, were used in the experiment on PAF-induced lethality. The animals were fasted before the experiment. Test compound was given orally 60 minutes before (or intravenously simultaneously with) intravenous PAF injection (10 μg/kg) into a tail vein. Survival of the animals was recorded for 24 hours after intravenous PAF injection.

≈ marks a conversion by molar mass, not a printed value. Where two headings read alike, the source gives them in different places.

Consider `O=C1CC2(CCCCC2Cc2cccc(Cl)c2)S(=O)(=O)CCN1Cc1cccnc1` (stereo not shown) [1-(3-Chlorophenylmethyl)-10-(3-pyridylmethyl)-11-oxo-7-thia-10-azaspiro[5.6]dodecane 7,7-dioxide], for which the ED50 in assay [1] stood at 2.9 mg/kg.
On to `CN(C)CCN1C(=O)CC2(CCCCC2Cc2ccccc2Cl)[S+]([O-])c2ccccc21` (stereo not shown) [2'-(2-Chlorophenylmethyl)-4,5-dihydro-4-oxo-5-{2-(N,N-dimethylamino)ethyl}spiro[1,5-benzothiazepine-2(3H), 1'-cyclohexane] 1-oxide], for which, in assay [2], the IC50 amounted to 0.17 µg/mL (≈ 0.37 µM).
For the molecule `O=C1C[C@]2(CCCC[C@H]2Cc2ccccc2)S(=O)(=O)CCN1Cc1cccnc1` [(1S,6S)-1-Phenylmethyl-10-(3-pyridylmethyl)-11-oxo-7-thia-10-azaspiro[5.6]dodecane 7,7-dioxide], the ED50 was determined as 3.7 mg/kg in assay [3]; 2.4 mg/kg in assay [4] (intravenous, simultaneous with endotoxin 10 mg/kg, serum FDP at 4 hours, read-out: ED50 (mg/kg), endotoxin-induced DIC, intravenous); 6.8 mg/kg in assay [4] (oral, 60 minutes before and 6 hours after endotoxin 10 mg/kg, serum FDP at 24 hours, read-out: ED50 (mg/kg), endotoxin-induced DIC, oral); 1 mg/kg with PAF-induced lethality (intravenous, simultaneously with PAF 10 μg/kg i.v., read-out: ED50 (mg/kg), PAF-induced lethality, intravenous); 2 mg/kg with PAF-induced lethality (oral, 60 minutes before PAF 10 μg/kg i.v., read-out: ED50 (mg/kg), PAF-induced lethality, oral).
